The source of these data is ChEMBL document CHEMBL2073813, “Regulation of renal oatp mRNA expression by testosterone” (Am J Physiol, 1996).

Data set [1] concerns the target T1, Solute carrier organic anion transporter family member 1A1 (Rattus norvegicus, UniProt P46720).
T1 sequence (P46720 whole entry): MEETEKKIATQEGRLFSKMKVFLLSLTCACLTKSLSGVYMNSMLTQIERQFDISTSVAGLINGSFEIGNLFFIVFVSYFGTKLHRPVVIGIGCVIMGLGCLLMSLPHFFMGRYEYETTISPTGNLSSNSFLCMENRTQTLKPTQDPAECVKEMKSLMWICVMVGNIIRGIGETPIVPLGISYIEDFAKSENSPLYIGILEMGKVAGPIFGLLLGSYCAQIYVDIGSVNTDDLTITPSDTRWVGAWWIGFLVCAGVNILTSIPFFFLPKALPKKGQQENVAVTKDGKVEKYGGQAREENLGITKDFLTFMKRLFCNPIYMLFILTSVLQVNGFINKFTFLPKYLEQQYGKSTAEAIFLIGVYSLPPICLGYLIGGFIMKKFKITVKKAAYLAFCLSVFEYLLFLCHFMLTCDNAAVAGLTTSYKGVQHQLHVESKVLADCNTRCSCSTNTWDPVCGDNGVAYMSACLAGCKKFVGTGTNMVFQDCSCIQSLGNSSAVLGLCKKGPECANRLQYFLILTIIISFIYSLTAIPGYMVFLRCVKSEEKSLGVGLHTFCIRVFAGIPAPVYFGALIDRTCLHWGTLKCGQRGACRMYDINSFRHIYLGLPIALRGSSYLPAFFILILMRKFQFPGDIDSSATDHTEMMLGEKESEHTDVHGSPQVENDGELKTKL
The data set can be described thus: TP_TRANSPORTER: Northern blot. The format is functional.

The target of data set [2] is T1, Solute carrier organic anion transporter family member 1A1. The data set can be described thus: TP_TRANSPORTER: Northern blot in vivo, kidney of SD rat. The format is functional, organism-based, Sprague-Dawley.

Turning to `C[C@]12CC[C@@H]3c4ccc(O)cc4CC[C@H]3[C@@H]1CC[C@@H]2O` [ESTRADIOL], the Activity result in data set [1] was “inducer [+]”.

For the molecule `C[C@]12CC[C@H]3[C@@H](CCC4=CC(=O)CC[C@@]43C)[C@@H]1CC[C@@H]2O` [TESTOSTERONE], the Activity result in data set [2] was “inducer [+]”.
